Experimental data as given in patent US8969515B2, “Pharmaceutical composition for treating hyperproliferative diseases” (OOO “MetaMax”, priority 2011, dated 2015).

Columns and labels:
[1] = system: cell lines HEK293 and A549; experiment: Cell cycle arrest by chemotherapeutics alone, preliminary experiments; assay type: cell-based, human; details: 100 nMol
From the text: This concentration for all drugs was 100 nMol.

HCT-116 cells xenograft = experiment: Anti-tumor activity in vivo, local injection, HCT-116 xenograft; parameters: species or system mice; details: 0.1 mg group, 28 days
From the text: The tumor nodule of HCT-116 cells is characterized by a large in size and the presence of ulceration. In the control group, on day 28 of the experiment the average tumor volume reached 679 mm^3, 3 mice died during the experiment. In the test group, a lower rate of tumor growth was observed (FIG. 32), on day 28 of the experiment the average tumor volume was 225.4 mm^3, the number of dead animals in the experimental group was 2.

A549 cells xenograft = experiment: Anti-tumor activity in vivo, local injection, A549 xenograft; details: 24 days
From the text: 10 mice constituted the 1st treatment group. […] The experiment lasted 24 days.
In the experimental groups, we observed a reduced tumor growth and on day 6 after the begin of administration of the peptide there could be observed a significant reduction in tumor volume in experimental groups compared with the control ones (FIG. 32). The experiment lasted 24 days. During this time, we performed 10 injections of the chimeric peptide in the experimental groups. In the control group, on day 24 of the experiment, the average tumor volume in mice was 95.24 mm^3, one mouse died. In the first experimental group (administered dose of peptide—0.1 mg) average tumor volume was 39.29 mm^3, one mouse died.

cyclin B = experiment: Cyclin B mRNA expression by quantitative RT-PCR; assay type: cell-based, human
Procedure: FIG. 29. Study of cyclin B synthesis in HEK293 cell culture by adding peptide Tat_p16 (30 µMol). […] X-axis—incubation time (hours), Y-axis—abstract units.
It is known that the phosphorylation of pRb is an initiating step for activation of expression of cyclins A and B and for transition of cells from G1 into S phase of the cell cycle. Quantitative PCR method was used to study mRNA expression level of cyclin B when exposed to Tat_p16 peptide. For this purpose during experiment on synchronized culture with adding Tat_p16 chimeric peptide at a concentration of 40 µmol, we performed a parallel selection of cells from samples for RNA extraction, whereas a part of the cells served the determination of the cell cycle phases. Further processing of the material involved RNA isolation and quantitative PCR reaction setting (RT-PCR) carried out according to the protocol.

[2] = system: HEK293 cell line synchronized in G0/G1 phase; experiment: Cell cycle phase analysis by flow cytofluorometry after sync block removal; assay type: cell-based, human; details: for antiproliferative effect on cell cycle: peptide added at sync block removal
Procedure: (§1) In experiments with cell lines we evaluated the distribution of cells according to the phases of the cell cycle and calculated the proliferation index. For analysis we used software FloMax 2.0 (built-in option of flow cytofluorimenter) and software Modfit LT 3.0 (FIGS. 7 and 8). We also carried out the determination of the proportion of cells entered the apoptosis based on size of “pre-G1-hypodiploid” peak on DNA histogram (FIG. 8 (B)). Experiments were performed both on cell lines synchronized in phase G1/S, and on non-synchronized cell lines Raji, Jurkatt, A549, HEK 293, MCF-7.
The study of the effects of peptides was conducted on transplantable cell cultures. In order to study alterations in the expression of specific intracellular regulators and in order to improve visualization of the experiments, the cells were pre-synchronized.
At the first stage of the evaluation of the obtained results, we investigated the effect of internalizable chimeric peptides with different active centers—p16INK4a and p21/CIP/KIP. The chimeric peptide to be studied was added at the moment of the sync block removal. Cell cycle analysis was performed every 2 hours for 24 hours after removal of the block.
We investigated chimeric peptides having p16INK4a active center and having different types of vectors, Tat and pAntp. […] As is seen from FIG. 18, plots of dependencies of the number of cells in the cell cycle phases are similar in appearance for the two types of peptide vectors carrying p16 fragment. In the control sample—synchronized cell culture without the addition of the study peptide, the number of cells in G0/G1-phase starts to decline as early as 2 hours after removal of the synch block, and 10 hours later we recorded the lowest number of cells in G0/G1-phase. S-phase in the control samples starts to increase 4-6 hours after sync block removal and reaches a maximum after 12 hours.

HEK293 cell line = experiment: Apoptosis level (hypodiploid peak) in HEK293 culture; assay type: cell-based, human; details: synchronized culture
Procedure: FIG. 16. Mean apoptosis values for synchronized HEK293 cell culture in a series of experiments using internalized peptides with active centers p21 and p16. Incubation time with peptide is 24 hours. Concentration of peptides is 40 µMol. Y-axis—percentage of apoptotic particles.
FIG. 20. Mean apoptosis values in synchronized culture of HEK293 after addition of chimeric peptides Tat_p16 and pAntp p16. […] The peptides were added at the moment of synchronization block removal. The effect was evaluated after 24 hours.
FIG. 21. Change in the level of apoptosis in the cell culture depending on the incubation time with peptides Tat_p16 and pAntp_p16 for synchronized 293 cell line (A) and synchronized A549 cell line (B).
as §1

[3] = system: cell lines A549, HEK293 and MCF-7; experiment: Apoptosis level with pAntp chimeric peptide versions; assay type: cell-based, human; details: 40 μM, lines A549 and HEK 293, non-synchronized and synchronized
Procedure: FIG. 24. Effect of chimeric peptides containing a p16INK4a fragment on apoptosis level in non-synchronized and synchronized cell line A549. Peptide concentration is 40 µM. Y-axis—percentage of apoptotic bodies.
FIG. 25. Effect of chimeric peptides containing a p16INK4a fragment on apoptosis level in non-synchronized and synchronized HEK293 cell line. Peptide concentration is 40 µM. Y-axis—percentage of apoptotic bodies.
FIG. 26. Comparisons of cytotoxic effect of chimeric peptides pAntpp16 (1, 2) on HEK293 cell culture.
In the next phase of work, we assessed the dependence of the cytotoxic effect exerted by the chimeric test peptides with the peptide vector pAntp. An experiment to determine the level of apoptosis was carried out on the cell lines A549 (human, lung carcinoma), HEK293 (human, embryonic kidney) and MCF-7 (human, mammary adenocarcinoma). Cells were cultured by standard techniques in DMEM medium containing 10% of FSB. A part of the cells was previously synchronized using the method of double thymidine block and synchronization method with the depleted media (see “Experiment. Parts”). The chimeric test peptides pAntp-p16 (1 and 2) were added to the culture medium. As a negative control we used cells treated with the peptide pAntp_zam (FIGS. 24, 25).

[4] = system: HEK293 cell line, non-synchronized and synchronized; experiment: Effect of pAntp chimeric peptide versions on cell cycle, HEK293; assay type: cell-based, human; details: 40 μM; for changes of the cell cycle phases: synchronized and nonsynchronized cells
Procedure: FIG. 22. Effect of chimeric peptide pAntp containing a p16INK4a fragment, on the cell cycle. A—non-synchronized cell line HEK293, B—cell line HEK293 synchronized in S-phase. Peptide concentration is 40 µM. The peptides are pAntp and three further peptides 1-p16, 2-p16, and 3-p16, wherein peptides 1-p16 and 2-p16 are synthetic peptides differing by the location of the 20 amino acids fragment of p16 relative to pAntp; and peptide 3-p16 is a genetically engineered peptide comprising a 50 amino acids insert of protein Antp.
We used three versions of the chimeric peptide containing p16INK4a active center and pAntp vector. These chimeric peptides differ by location of the active center relative to N-C termini of the molecule and the presence of an insertion of 44 amino acids ([…], SEQ ID NO: 9) for peptide 3 produced by genetic engineering method (Table 1).
In the study of the properties of these peptides we also investigated synchronized and nonsynchronized cell cultures. In a synchronized culture, the peptide was added at the time of sync block removal and in the nonsynchronized at a monolayer density (for adhesion cultures) of ~50%.

[5] = after sync block removal, 40 μM

With `O=c1[nH]cc(F)c(=O)[nH]1` [5-fluorouracil] the “cell cycle arrest phase” value [1] was “G0/G1-phase arrest”.

With `COc1cc([C@@H]2c3cc4c(cc3[C@@H](O[C@@H]3O[C@@H]5CO[C@@H](C)O[C@H]5[C@H](O)[C@H]3O)[C@H]3COC(=O)[C@H]23)OCO4)cc(OC)c1O` [Etoposide] the “cell cycle arrest phase” value [1] was “S-phase arrest”.

In the case of `CC(=O)O[C@H]1C(=O)[C@@]2(C)[C@H]([C@H](OC(=O)c3ccccc3)[C@]3(O)C[C@H](OC(=O)[C@H](O)[C@@H](NC(=O)c4ccccc4)c4ccccc4)C(C)=C1C3(C)C)[C@]1(OC(C)=O)CO[C@@H]1C[C@@H]2O` [Taxol], the “cell cycle arrest phase” value [1] is reported as “G2/M-phase arrest”.

For `CC[C@H](C)[C@H](NC(=O)[C@H](CCCCN)NC(=O)[C@@H](NC(=O)[C@H](CCC(N)=O)NC(=O)[C@H](CCCNC(=N)N)NC(=O)[C@H](CO)NC(=O)[C@H](CCCNC(=N)N)NC(=O)[C@H](C)NC(=O)CNC(=O)[C@H](C)NC(=O)[C@H](CCCNC(=N)N)NC(=O)[C@H](Cc1c[nH]cn1)NC(=O)[C@H](CC(C)C)NC(=O)[C@@H](NC(=O)[C@@H](NC(=O)[C@H](CC(C)C)NC(=O)[C@@H](NC(=O)[C@H](CC(=O)O)NC(=O)[C@H](CC(C)C)NC(=O)[C@H](Cc1ccccc1)NC(=O)CNC(=O)[C@H](CCC(=O)O)NC(=O)[C@H](CCCNC(=N)N)NC(=O)[C@H](C)NC(=O)[C@H](C)NC(=O)[C@@H](N)CC(=O)O)[C@@H](C)O)C(C)C)C(C)C)[C@@H](C)CC)C(=O)N[C@@H](Cc1c[nH]c2ccccc12)C(=O)N[C@@H](Cc1ccccc1)C(=O)N[C@@H](CCC(N)=O)C(=O)N[C@@H](CC(N)=O)C(=O)N[C@@H](CCCNC(=N)N)C(=O)N[C@@H](CCCNC(=N)N)C(=O)N[C@@H](CCSC)C(=O)N[C@@H](CCCCN)C(=O)N[C@@H](Cc1c[nH]c2ccccc12)C(=O)N[C@@H](CCCCN)C(=O)N[C@@H](CCCCN)C(=O)O` [pAntp_p16(2)], the “number of dead animals” value (HCT-116 cells xenograft) was 2, the mice died (A549 cells xenograft; 0.1 mg group) was “one” and the mice died (A549 cells xenograft; 0.2 mg group) was “no animals died”.

With “DAAREGFLDTLVVLHRAGARS YGRKKRRQRRRG (DAAREGFLDTLVVLHRAGARSYGRKKRRQRRRG; Tat_p16, chimeric peptide; listed as Homo Sapiens)” the “effect on expression of cyclin B” value (cyclin B; HEK293 synchronized in G0/G1, Tat_p16 40 μmol) was “inhibits the expression of B cyclin”, the “incubation time after which cyclin B expression level increases” value (cyclin B; control maximum at 12 hours) was 16 h and the “time at which G0/G1 phase starts to decrease” value [2, 5] was “simultaneously with G0/G1-phase in control sample”. The “time at which S-phase begins to increase” value [2, 5] was 12 h, the “time of maximum S-phase” value [2, 5] was 14 h and the “time of maximum difference of cell cycle phases between control and test samples” value [2, 5] was “about 12 hours”. The “time of maximum difference of cell cycle phases between control and test samples” value ([2]; after sync block removal, 40 μM, listed as Tatp16) was 12 h, the “antiproliferative effect on cell cycle” value ([2]; 40 μM) was “arrest of G1-S transition” and the “time at which increase in G2-phase occurs” value ([2]; same experiment as cyclin B RT-PCR) was 16 h.

YGRKKRRQRRRGPVKRRLDL [Tat_p21] was tested, and the “dependence of the level of apoptosis on the incubation time” value (HEK293 cell line) was “has not been observed”, the “mean apoptosis values versus control samples” value (HEK293 cell line; 24 hours, 40 μMol) was “no significant differences” and the “time of maximum difference of cell cycle phases between control and test samples” value [2, 5] was 10 to 12 h. For the same compound, the “time at which G2/M-phase level reaches a maximum value” ([2]; average) was 18 to 20 h, the “antiproliferative effect on cell cycle” value ([2]; 40 μM) was “arrest of transition of cells from S-phase in G2/M-phase” and the “level of S-phase remaining over 14 hours of incubation” value ([2]; test sample, over 14 hours) was 65-70%.

For “pAntp_p16(1): chimeric peptide, p16INK4a fragment at C-terminus, pAntp at N-terminus (SEQ ID NO: 10), solid phase synthesis (RQIKIWFQNRRMKWKKDAAREGFLDTLVVLHRAGAR; pAntp_p16(1), chimeric peptide; listed as Homo Sapiens)”, the “effect on the level of apoptosis” value [3] was “markedly increases”, the “changes of the cell cycle phases” value [4] was “fails to induce the expected cytostatic effect” and the “anti-proliferative effect on cells” value ([4]; summary of HEK293 and A549 experiments) was “does not have an anti-proliferative effect”.

“pAntp_zam: control peptide with p16INK4a sequence (amino acids 82-102) with substitution of tyrosine by alanine at position 92 (RQIKIWFQNRRMKWKKDAAREGFLDALVVLHRAGAR; pAntp_zam, chimeric peptide; listed as Homo Sapiens) [reference compound]” was tested, and the “effect on the level of apoptosis” value [3] was “not affected” and the “changes of the cell cycle phases” value [4] was “do not differ from the control”.
